Test results: patent publication US6057447A, “Quinoline sulfide derivatives” (Zenyaku Kogyo Kabushiki Kaisha, priority 1996, dated 2000)
≈ marks a conversion by molar mass, not a printed value.

How the values were obtained:
peptic ulcer = details: up to; cited from earlier work
[1] = test system: Helicobacter pylori standard strain ATCC 43526 (NCTC 11916); test: Antibacterial Test 1: MIC against Helicobacter pylori, agar plate dilution method (anaerobic MIC method); type: cell-based; details: 72 h, Hp ATCC 43526, agar plate dilution, 37° C., 3 days
[2] = test system: seven gram-positive or -negative strains; test: Antibacterial Test 2: MIC against each of the seven strains; type: cell-based; details: each of S. aureus, M. luteus, E. faecalis, B. subtilis, E. coli, K. pneumoniae, P. aeruginosa; read-out: MIC of each of the above-mentioned seven strains
Experimental: Then, tested were antibacterial activities of the typical compounds of the present invention against gram-positive and -negative bacteria other than Hp. MICs of the typical compounds of the present invention were determined in substantial accordance with agar dilution method (aerobic MIC method) based on standard method of the Japan Society Chemotherapy.
The respective test compound were dissolved in dimethyl sulfoxide (DMSO) and serially diluted twofold to prepare solutions of the compounds with concentration of 0.05-100 μg/ml. The solutions of the compounds were respectively added to sensitive-disk agar medium-N (manufactured by NISSUI SEIYAKU) to prepare agar plates for determination.
The below-mentioned strains freezingly conserved at -135° C. were thawed in a warm bath (40° C.), cultured in a sensitivity-determining bouillon at 37° C. for 18-20 hours, and then diluted with the above-mentioned medium to prepare about 1.0×10^6 CFU/ml of bacterial suspension.
Inoculation was made by 5 μl by multi-inoculator (manufactured by SAKUMA SEISAKUSHO). Culturing was made under the same conditions as those of the pre-culturing and the MIC (unit: μg/ml) was determined by observing whether the bacteria grew or not.

Structure (SMILES)	cure rate (peptic ulcer)	MIC [1] [ng/mL]	MIC [2] [ng/mL]
CN/C(=N/CCSCc1nc[nH]c1C)NC#N [cimetidine]	80-90%	–	–
CC(C)(C)OC(=O)N1CCC(Nc2ccc(C(=O)CSc3ccnc4ccccc34)cc2Br)C1 (stereo not shown) [Compound 65, 4-[2-[3-Bromo-4-(1-tert-butoxycarbonyl-3-pyrrolidinylamino)phenyl]-2-oxoethylthio]quinoline]	–	3.1 (≈ 5.71 nM)	> 100000
COc1ccc2[nH]c([S+]([O-])Cc3ncc(C)c(OC)c3C)nc2c1 (stereo not shown) [omeprazole]	80-90%	–	–
CC(C)[C@H](NC(=O)OC(C)(C)C)C(=O)N1CCN(c2ccc(C(=O)CSc3ccnc4ccccc34)cc2)CC1 [Compound 79, 4-[2-[4-[4-(N-tert-Butoxycarbonylvalyl)-1-piperazinyl]-phenyl]-2-oxoethylthio]quinoline]	–	1.6 (≈ 2.84 nM)	> 100000
O=C(CSc1ccnc2ccccc12)c1ccc(N2CCN(C(=O)OCC(Cl)(Cl)Cl)CC2)cc1 [Compound 81, 4-[2-[4-[4-(2,2,2-Trichloroethoxycarbonyl)-1-piperazinyl]phenyl]-2-oxoethylthio]quinoline]	–	1.6 (≈ 2.97 nM)	> 100000
O=C(CSc1ccnc2ccccc12)c1ccc(N2CCN(C(=O)OCc3ccccc3)CC2)cc1 [Compound 78, 4-[2-[4-(4-Benzyloxycarbonyl-1-piperazinyl)phenyl)-2-oxoethylthio]quinoline]	–	3.1 (≈ 6.23 nM)	> 100000
